{"source": "patent US20230114946A1", "about": "“MESOSCALE NANOPARTICLES FOR SELECTIVE TARGETING TO THE KIDNEY AND METHODS OF THEIR THERAPEUTIC USE” (Memorial Sloan Kettering Cancer Center, priority 2015, published 2023)", "system": "human kidney proximal tubular epithelial cell line HK-2", "assay": "In vitro nanoparticle uptake", "format": "cell-based", "details": "inhibitor of clathrin/caveolin-mediated endocytosis", "description": "The following cell lines were used to determine uptake of anionic and cationic nanoparticles in vitro: MCF-7 human breast adenocarcinoma (ATCC; Manassas, Va.), SK-RC-48 human clear cell renal cell carcinoma (ccRCC) (Weill Cornell Medical College; New York, N.Y.), bEND3 mouse brain endothelial (ATCC), endothelial cell line EA-926, and human kidney proximal tubular epithelial cell line HK-2. MCF-7 cells were cultured in Dulbecco's Modified Eagle Medium (DMEM) with penicillin (10,000 U/mL)/streptomycin (10,000 U/mL)/glutamine (29.2 mg/mL) (Gibco; Carlsbad, Calif.), 0.01 mg/mL human recombinant insulin (Gibco), and 10% fetal bovine serum (FBS) (Gibco); SK-RC-48 were cultured in DMEM with 1× penicillin/streptomycin/glutamine and 10% FBS; and bEND3 cells in the same plus 1% glutaMAX (Gibco). HK-2 cells were cultured in Keratinocyte Serum Free Media (Gibco). EA-926 cells were cultured in RPMI-1640 medium (Gibco) supplemented with 10% FBS. Cells were passaged approximately weekly and media changed every 2-3 days. Cells were seeded into a 6-well cell culture dish for uptake studies. […]\nCells were incubated with 100 μg/mL NPs in 1 mL of their respective complete medias for 30 minutes. […] Cells were imaged with a fluorescence microscope using Cy5 filters.", "data": [{"molecule": "O=C(N/N=C/c1ccc(O)c(O)c1)c1cc2ccccc2cc1O", "note": "[Dynasore]", "values": [{"measurement": "inhibition of MNP uptake into HK-2 cells", "value": "can be inhibited"}]}]}
